Source: patent US20100249145A1, “Inhibitors of VEGF Receptor and HGF Receptor Signaling” (Methylgene, Inc., priority 2005, published 2010)
Where a name gives a salt, the structure may show the parent alone.

What was measured:
VEGF receptor KDR = target: T1, VEGF receptor KDR (Homo sapiens, UniProt P35968); test: In vitro receptor tyrosine kinase assay (DELFIA), VEGF receptor KDR; assay type: biochemical; settings: Table 30; ATP 0.6 uM, enzyme 5 nM; read-out: VEGF(enz.) (IC50)
T1 construct: made in house; host or cells: Sf9 cells (Spodoptera frugiperda), recombinant baculovirus

[1] = target: T2, recombinant human c-Met/HGF receptor (Homo sapiens, UniProt P08581); test: In vitro receptor tyrosine kinase assay (DELFIA), c-Met/HGF receptor; assay type: biochemical; settings: Table 30; ATP 10 uM, enzyme 25 nM; read-out: C-Met (enz.) (IC50)
T2 construct: His tag (histidine tag from pBlueBacHis2A); made in house; host or cells: Hi-5 cells (Trichoplusia ni), recombinant baculovirus

TPR-MET fusion protein = TPR-MET fusion protein (Homo sapiens, UniProt P08581); test: C-Met phosphorylation cell-based assay (MNNGHOS cells, immunoblot); settings: Table 30, 3 hours treatment, read-out: C-Met cell-based Y1230-34-35 tpr-met inhibition (IC50)
From the text: C-Met Phosphorylation Cell-Based Assay

DU145 = test: In vivo solid tumor disease model, DU145 xenograft; parameters: species or system female athymic CD 1 mice; settings: 10 days
A549 = test: In vivo solid tumor disease model, A549 xenograft; parameters: species or system female athymic CD 1 mice
U87 cells = test: In vivo solid tumor disease model, U87 xenograft; parameters: species or system female athymic CD 1 mice; settings: U87MG
From the text: (§1) In Vivo Solid Tumor Disease Model
(§2) This test measures the capacity of compounds to inhibit solid tumor growth.
(§3) Tumor xenografts were established in the flank of female athymic CD 1 mice (Charles River Inc.), by subcutaneous injection of 1×10^6U87, A431 or SKLMS cells/mouse. Once established, tumors were then serially passaged s.c. in nude mice hosts. Tumor fragments from these host animals were used in subsequent compound evaluation experiments. For compound evaluation experiments female nude mice weighing approximately 20 g were implanted s.c. by surgical implantation with tumor fragments of ˜30 mg from donor tumors. When the tumors were approximately 100 mm^3 in size (˜7-10 days following implantation), the animals were randomized a separated into treatment and control groups. Each group contained 6-8 tumor-bearing mice, each of which was ear-tagged and followed individually throughout the experiment
(§4) Mice were weighed and tumor measurements are taken by calipers three times weekly, starting on Day 1. These tumor measurements were converted to tumor volume by the well-known formula (L+W/4)^34/3π. The experiment was terminated when the control tumors reached a size of approximately 1500 mm^3. In this model, the change in mean tumor volume for a compound treated group/the change in mean tumor volume of the control group (non-treated or vehicle treated)×100 (ΔT/ΔC) was subtracted from 100 to give the percent tumor growth inhibition (% TGI) for each test compound. In addition to tumor volumes, body weight of animals were monitored twice weekly for up to 3 weeks.
(§5) Regiment of administration was once daily.

SKLMS cells = test: In vivo solid tumor disease model, SKLMS xenograft; parameters: species or system female athymic CD 1 mice; settings: SKLMS40, 75 mg/kg once daily PO, vehicle 5% DMSO - 1% Tween-80 in water
From the text: as §1, §2, §3, §4, §5

[2] = 75 mg/kg once daily PO, vehicle 5% DMSO - 1% Tween-80 in water, 10 days
[3] = 75 mg/kg once daily PO, vehicle 5% DMSO - 1% Tween-80 in water, 14 days

T1 sequence (P35968 806-1356): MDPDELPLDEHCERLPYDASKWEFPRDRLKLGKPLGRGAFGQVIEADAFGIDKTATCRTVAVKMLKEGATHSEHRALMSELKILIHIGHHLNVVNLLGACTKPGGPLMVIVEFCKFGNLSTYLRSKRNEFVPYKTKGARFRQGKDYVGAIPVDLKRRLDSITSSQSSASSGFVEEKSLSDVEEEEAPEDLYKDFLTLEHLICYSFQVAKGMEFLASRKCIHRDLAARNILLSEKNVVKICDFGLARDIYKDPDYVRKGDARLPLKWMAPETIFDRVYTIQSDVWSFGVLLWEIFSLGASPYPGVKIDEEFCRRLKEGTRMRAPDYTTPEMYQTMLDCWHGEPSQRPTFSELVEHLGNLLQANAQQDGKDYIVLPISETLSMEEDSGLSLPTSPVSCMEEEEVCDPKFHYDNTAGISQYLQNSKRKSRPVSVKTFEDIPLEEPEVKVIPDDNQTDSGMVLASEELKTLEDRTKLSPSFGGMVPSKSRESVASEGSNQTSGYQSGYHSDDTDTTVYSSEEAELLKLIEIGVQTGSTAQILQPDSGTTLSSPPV
T2 sequence (P08581 1078-1337): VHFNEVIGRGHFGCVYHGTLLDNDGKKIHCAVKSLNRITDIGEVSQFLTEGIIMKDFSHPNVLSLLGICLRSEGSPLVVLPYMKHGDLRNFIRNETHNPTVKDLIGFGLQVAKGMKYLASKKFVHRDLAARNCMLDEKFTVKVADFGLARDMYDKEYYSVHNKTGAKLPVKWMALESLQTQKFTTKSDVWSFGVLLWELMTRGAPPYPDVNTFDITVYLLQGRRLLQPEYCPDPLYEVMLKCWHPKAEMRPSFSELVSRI
TPR-MET fusion protein, sequence (P08581 with tags, fused parts or gaps): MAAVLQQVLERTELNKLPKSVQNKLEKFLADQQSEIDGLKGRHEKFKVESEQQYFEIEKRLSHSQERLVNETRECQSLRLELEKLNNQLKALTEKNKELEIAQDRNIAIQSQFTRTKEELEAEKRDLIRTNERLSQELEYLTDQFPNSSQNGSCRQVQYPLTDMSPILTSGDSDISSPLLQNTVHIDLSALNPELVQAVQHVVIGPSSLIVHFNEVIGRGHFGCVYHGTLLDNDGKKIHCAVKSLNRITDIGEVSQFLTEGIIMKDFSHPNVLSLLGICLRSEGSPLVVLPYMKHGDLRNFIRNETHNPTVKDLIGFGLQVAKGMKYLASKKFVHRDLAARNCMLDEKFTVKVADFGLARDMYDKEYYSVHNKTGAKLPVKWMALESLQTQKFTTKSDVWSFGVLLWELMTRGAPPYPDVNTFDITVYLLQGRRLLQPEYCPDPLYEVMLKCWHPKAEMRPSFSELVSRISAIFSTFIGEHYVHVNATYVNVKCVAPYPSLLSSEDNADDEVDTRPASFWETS

Compound: 1-(4-(2- (morpholinylcarbamoyl) thieno[3,2- b]pyridin-7-yloxy)-3- fluorophenyl)-3-(2- phenylacetyl)thiourea [Example 3]
- IC50 (VEGF receptor KDR): 250 to 500 nM
- IC50 [1]: 50 to 250 nM
- IC50 (TPR-MET fusion protein): 50 to 250 nM

Compound: 1-(4-(6-(4-N- Methylpiperazylcarbamoyl) thieno[3,2- d]pyrimidin-4-yloxy)- 3-fluorophenyl)-3-(2- phenylacetyl)thiourea [Example 24]
- IC50 (VEGF receptor KDR): 250 to 500 nM
- IC50 [1]: 50 to 250 nM
- IC50 (TPR-MET fusion protein): > 500 nM

Compound: O=C(Cc1ccccc1)NC(=S)Nc1ccc(Oc2ccnc3cc(C(=O)NCCN4CCOCC4)sc23)c(F)c1 [Example 2, l-(4-(2-(2-morpholinoethylcarbamoyl)thieno[3,2-b]pyridin-7-yloxy)-3-fluorophenyl)-3-(2-phenylacetyl)thiourea]
- IC50 (VEGF receptor KDR): < 50 nM
- IC50 [1]: 50 to 250 nM
- IC50 (TPR-MET fusion protein): 50 to 250 nM

Compound: CON(C)C(=O)c1cc2nccc(Oc3ccc(NC(=S)NC(=O)Cc4ccccc4)cc3F)c2s1 [Example 10, 1-(4-(2-(N-methoxy-N-methylcarbamoyl)thieno[3,2-b]pyridin-7-yloxy)-3-fluorophenyl)-3-(2-phenylacetyl)thiourea]
- IC50 (VEGF receptor KDR): 50 to 250 nM
- IC50 [1]: 50 to 250 nM
- IC50 (TPR-MET fusion protein): 50 to 250 nM

Compound: COC(=O)C(C)N(C(=S)NC(=O)Cc1ccccc1)c1ccc(Oc2ccnc3cc(C(N)=O)sc23)c(F)c1 (stereo not shown) [Example 11, Methyl 2-(1-(4-(2-(carbamoyl)thieno [3,2-b]pyridin-7-yloxy)-3-fluorophenyl)-3-(2-phenylacetyl)thioureido) propanoate]
- IC50 (VEGF receptor KDR): > 500 nM
- IC50 [1]: 50 to 250 nM
- IC50 (TPR-MET fusion protein): 50 to 250 nM

Compound: O=C(Cc1ccccc1)NC(=S)Nc1ccc(Oc2ncnc3cc(C(=O)NCCN4CCOCC4)sc23)c(F)c1 [Example 22, 1-(4-(6-(2-Morpholinoethylcarbamoyl)thieno[3,2-d]pyrimidin-4-yloxy)-3-fluorophenyl)-3-(2-phenylacetyl)thiourea]
- IC50 (VEGF receptor KDR): 50 to 250 nM
- IC50 [1]: 50 to 250 nM
- IC50 (TPR-MET fusion protein): < 50 nM

Compound: CN(C)C(=O)c1cc2ncnc(Oc3ccc(NC(=S)NC(=O)Cc4ccccc4)cc3F)c2s1 [Example 23, 1-(4-(6-(Dimethylcarbamoyl)thieno[3,2-d]pyrimidin-4-yloxy)-3-fluorophenyl)-3-(2-phenylacetyl)thiourea]
- IC50 (VEGF receptor KDR): < 50 nM
- IC50 [1]: 50 to 250 nM
- IC50 (TPR-MET fusion protein): 50 to 250 nM

Compound: CN(Cc1ccco1)C(=O)c1cc2nccc(Oc3ccc(NC(=S)NC(=O)Cc4ccccc4)cc3F)c2s1 [Example 35, 7-[2-Fluoro-4-(3-phenylacetyl-thioureido)-phenoxy]-thieno[3,2-b]pyridine-2-carboxylic acid furan-2-ylmethyl-methyl-amide]
- IC50 (VEGF receptor KDR): 50 to 250 nM
- IC50 [1]: 50 to 250 nM
- IC50 (TPR-MET fusion protein): < 50 nM

Compound: CC(C)N(CCNC(=O)c1cc2nccc(Oc3ccc(NC(=S)NC(=O)Cc4ccccc4)cc3F)c2s1)C(C)C [Example 36, 7-[2-Fluoro-4-(3-phenylacetyl-thioureido)-phenoxy]-thieno[3,2-b]pyridine-2-carboxylic acid (2-diisopropylamino-ethyl)-amide, formate salt]
- IC50 (VEGF receptor KDR): > 500 nM
- IC50 [1]: 50 to 250 nM
- IC50 (TPR-MET fusion protein): 50 to 250 nM

Compound: NC(=O)[C@@H]1CCCN1C(=O)c1cc2nccc(Oc3ccc(NC(=S)NC(=O)Cc4ccccc4)cc3F)c2s1 [Example 40, (S)-1-(7-(2-Fluoro-4-(3-(2-phenylacetyl)thioureido)phenoxy)thieno[3,2-b]pyridine-2-carbonyl)pyrrolidine-2-carboxamide]
- IC50 (VEGF receptor KDR): < 50 nM
- IC50 [1]: 50 to 250 nM
- IC50 (TPR-MET fusion protein): 50 to 250 nM

Compound: Cn1cnc(-c2cc3nccc(Oc4ccc(NC(=S)NC(=O)Cc5ccccc5)cc4F)c3s2)c1 [Example 76, N-(3-Fluoro-4-(2-(1-methyl-1H-imidazol-4-yl)thieno[3,2-b]pyridin-7-yloxy)phenylcarbamothioyl)-2-phenylacetamide]
- Tumor Growth Inhibition (%) (DU145; 75 mg/kg once daily PO, vehicle 5% DMSO - 1% Tween-80 in water): c (% TGI in the range of 25-49)
- Tumor Growth Inhibition (%) (A549; 30 mg/kg once daily IP, vehicle DMSO, 14 days): b (% TGI in the range of 50-74)
- Tumor Growth Inhibition (%) (A549; [2]): b (% TGI in the range of 50-74)
- Tumor Growth Inhibition (%) (A549; [3]): c (% TGI in the range of 25-49)

Compound: CCn1cnc(-c2cc3nccc(Oc4ccc(NC(=S)NC(=O)Cc5ccccc5)cc4F)c3s2)c1 [Example 77, N-(4-(2-(1-Ethyl-1H-imidazol-4-yl)thieno[3,2-b]pyridin-7-yloxy)-3-fluorophenylcarbamothioyl)-2-phenylacetamide]
- Tumor Growth Inhibition (%) (U87 cells; [3]): b (% TGI in the range of 50-74)
- Tumor Growth Inhibition (%) (A549; 30 mg/kg once daily IP, vehicle DMSO, 10 days): b (% TGI in the range of 50-74)
- Tumor Growth Inhibition (%) (A549; [2]): b (% TGI in the range of 50-74)
- Tumor Growth Inhibition (%) (SKLMS cells; 6 days): d (% TGI in the range of 0-24)

Compound: Cn1cc(-c2cc3nccc(Oc4ccc(NC(=S)NC(=O)Cc5ccccc5)cc4F)c3s2)cn1 [Example 81, N-(3-Fluoro-4-(2-(1-methyl-1H-pyrazol-4-yl)thieno[3,2-b]pyridin-7-yloxy)phenylcarbamothioyl)-2-phenylacetamide]
- Tumor Growth Inhibition (%) (SKLMS cells; 14 days): c (% TGI in the range of 25-49)

Compound: O=C(Cc1ccccc1)NC(=S)Nc1ccc(Oc2ncnc3cc(C(=O)N4CCCC4)sc23)c(F)c1 [Example 142, N-(3-Fluoro-4-(6-(pyrrolidine-1-carbonyl)thieno[3,2-d]pyrimidin-4-yloxy)phenylcarbamothioyl)-2-phenylacetamide]
- IC50 (VEGF receptor KDR): < 50 nM
- IC50 [1]: 50 to 250 nM
- IC50 (TPR-MET fusion protein): < 50 nM

Compound: CC(C)(C)OC(=O)NC1CCN(C(=O)c2cc3ncnc(Oc4ccc(NC(=S)NC(=O)Cc5ccccc5)cc4F)c3s2)C1 (stereo not shown) [Example 148, tert-Butyl 1-(4-(2-fluoro-4-(3-(2-phenylacetyl)thioureido)phenoxy)thieno[3,2-d]pyrimidine-6-carbonyl)pyrrolidin-3-ylcarbamate]
- Tumor Growth Inhibition (%) (U87 cells; 30 mg/kg once daily IP, vehicle 50/50 DMSO:40/60 PEG/0.2 N HCl in saline, 10 days): c (% TGI in the range of 25-49)
- Tumor Growth Inhibition (%) (DU145; 30 mg/kg once daily IP, vehicle DMSO): c (% TGI in the range of 25-49)

Compound: O=C(Cc1ccccc1)NC(=S)Nc1ccc(Oc2ccnc3cc[nH]c23)c(F)c1 [Example 221, N-(4-(1H-Pyrrolo[3,2-b]pyridin-7-yloxy)-3-fluorophenylcarbamothioyl)-2-phenyl acetamide]
- IC50 (VEGF receptor KDR): > 500 nM
- IC50 [1]: < 50 nM
- IC50 (TPR-MET fusion protein): > 500 nM

Compound: CCn1cnc(-c2cc3nccc(Oc4ccc(NC(=S)NC(=O)Cc5ccccc5OC)cc4F)c3s2)c1 [Example 243, 1-{4-[2-(1-Ethyl-1H-imidazol-4-yl)-thieno[3,2-b]pyridin-7-yloxy]-3-fluoro-phenyl}-3-[2-(2-methoxy-phenyl)-acetyl]-thiourea]
- Tumor Growth Inhibition (%) (U87 cells; [3]): b (% TGI in the range of 50-74)
- Tumor Growth Inhibition (%) (SKLMS cells; 11 days): b (% TGI in the range of 50-74)
